Source: US20140228381A1, “METHODS OF CONTROLLING INSECTS OF THE FAMILY CURCOLIONIDAE” (SYNGENTA PARTICIPATIONS AG, priority 2011, published 2014)

What was measured:
Assay type in all cases: in vivo
Heliothis virescens = test: BP80 Heliothis virescens ovo-larvicide, feeding/contact activity, curative; conditions: eggs on artificial diet, 5 days incubation
Procedure: (§1) BP80s (break points for 80% mortality) were obtained for Pyrifluquinazon and Flonicamid against the following pests: Heliothis virescens, Plutella xylostella, Tetranychus urticae and Cydia pomonella. The specific method used for each pest is outlined below. Heliothis virescens (Tobacco Budworm): ovo-larvicide, feeding/contact activity, curative Eggs (0-24 h old) are placed in a 24-well microtiter plate on artificial diet and treated with test solutions by pipetting. After an incubation period of 5 days, samples are checked for egg mortality and larval mortality. Selectable application rates: 500-0.05 ppm Plutella xylostella (Diamondback Moth): larvicide, feeding/residual contact activity, preventative 24-well microtiter plates with artificial diet are treated with test solutions by pipetting. After drying, the plates are infested with L2 larvae (10-15 per well). After an incubation period of 5 days, samples are checked for larval mortality. Selectable application rates: 500-0.05 ppm Tetranychus urticae (Two-Spotted Spider Mite): Mixed Population feeding/contact activity, preventative Bean leaf discs on agar in 24-well microtiter plates are sprayed with test solutions. After drying, the leaf discs are infested with mite populations of mixed ages. 8 days later, discs are checked for egg mortality, larval mortality, and adult mortality. […]

Anthonomus adults = test: B.5 immobility effect, contact spray on Anthonomus adults; conditions: 300 ppm contact spray; for no of insects at infestation site (A) / no of insects capable of leaving the infestation site (B) + (C) / no of insects in test arena, not on diet (C) / no of insects on diet (B): 50 beetles
Procedure: In this test 50 freshly hatched beetles were treated with FLON (IF 050 formulation) and PYQU (VVG 50 formulation). Using a turntable spray, 300 ppm of a 200 g ai/ha formulation were sprayed directly on the beetles. The control beetles (“check”) were sprayed with water. The petri dish was then placed in the test arena next to which was placed a diet situated 23 cm above ground. After a certain time periods shown below in the table, the number of beetles on different sites was counted: […]

Tetranychus urticae = test: BP80 Tetranychus urticae mixed population, feeding/contact activity, preventative; conditions: bean leaf discs, mixed ages, 8 days
Procedure: as §1

Plutella xylostella = test: BP80 Plutella xylostella larvicide, feeding/residual contact activity, preventative; conditions: L2 larvae on artificial diet, 5 days incubation
Procedure: as §1

Anthonomus grandis [1] = test: B.4 field trial, insecticidal activity against Anthonomus grandis in cotton
Procedure: Trials were carried out in a randomized complete block design, each comprising of 4 replicates, plot size of 30 m^2. Application was carried out with a pressurized knap sack sprayer. 200 liters of spray volume was applied per ha. 4 applications were carried out in 5 days interval, the first application at BBCH 51. Flonicamid was applied as a 50% WG, and Pyrifluquinaon as a 10% WP. Efficacy was evaluated 2 days after 4th and 7 days after 4th application. 50 squares were counted per plot and the percentage reduction of damaged squares in comparison to untreated control was calculated after the ABBOTT formula.

Anthonomus grandis [2] = test: B.3 field trial, insecticidal activity against Anthonomus grandis in cotton; conditions: 75 g ai/ha, 50% WG
Procedure: Trials were carried out in a randomized complete block design, each comprising of 4 replicates and a plot size of 30 m^2. Application was carried out with a pressurized knap sack sprayer. 200 liters of spray volume was applied per ha. 3 applications were carried out in 5 days interval, the first application at BBCH 51. Flonicamid was applied as a 50% WG. Efficacy was evaluated 2 days after 2nd and 5 days after 3rd application. 50 squares were counted per plot and the percentage reduction of damaged squares in comparison to untreated control was calculated after the ABBOTT formula.

Cydia pomonella = test: BP80 Cydia pomonella larvicide, contact/feeding activity, preventative; conditions: L1 larvae on diet cubes, 14 days after infestation
Procedure: as §1

Anthonomus grandis [3] = test: B.2 field trial, insecticidal activity against Anthonomus grandis in cotton; conditions: 75 g ai/ha, 50% WG
Procedure: Trials were carried out in a randomized complete block design, each comprising of 4 replicates, plot size of 30 m^2. Application was carried out with a pressurized knap sack sprayer. 200 liters of spray volume was applied per ha. 4 applications were carried out in 5 days interval. Flonicamid was applied as a 50% WG Efficacy was evaluated 2 days after 2nd application and 4 days after 4th application. 50 squares were counted per plot and the % reduction of damaged squares in comparison to untreated control was calculated after the ABBOTT formula.

For `CC(=O)N1C(=O)N(NCc2cccnc2)Cc2cc(C(F)(C(F)(F)F)C(F)(F)F)ccc21` [Pyrifluquinazon, 1-acetyl-3,4-dihydro-3-[(3-pyridinylmethyl)amino]-6-[1,2,2,2-tetrafluoro-1-(trifluoromethyl)ethyl]-2(1H)-quinazolinone], the “BP80 (break point for 80% mortality)” value (Heliothis virescens) was >200 ppm, the “immobility effect disappeared with time (rank order)” value (Anthonomus adults) was “PYQU>FLON” and the “no of insects at infestation site (A)” value (Anthonomus adults; 3 hours) was 45. The “no of insects capable of leaving the infestation site (B) + (C)” value (shortened to “no of insects capable … (C)”) (Anthonomus adults; 3 hours) was 5, the “no of insects in test arena, not on diet (C)” value (“no … not on diet (C)” below) (Anthonomus adults; 3 hours) was 1 and the “no of insects on diet (B)” value (Anthonomus adults; 3 hours) was 4. For the same compound, the “no of insects at infestation site (A)” value (Anthonomus adults; 6 hours) was 45, the “no of insects capable … (C)” value (Anthonomus adults; 6 hours) was 5 and the “no … not on diet (C)” value (Anthonomus adults; 6 hours) was 2. The “no of insects on diet (B)” value (Anthonomus adults; 6 hours) was 3, the “no of insects at infestation site (A)” value (Anthonomus adults; 24 hours) was 39 and the “no of insects capable … (C)” value (Anthonomus adults; 24 hours) was 11. For the same compound, the “no … not on diet (C)” value (Anthonomus adults; 24 hours) was 3, the “no of insects on diet (B)” value (Anthonomus adults; 24 hours) was 8 and the “no of insects at infestation site (A)” value (Anthonomus adults; 32 hours) was 27. The “no of insects capable … (C)” value (Anthonomus adults; 32 hours) was 23, the “no … not on diet (C)” value (Anthonomus adults; 32 hours) was 4 and the “no of insects on diet (B)” value (Anthonomus adults; 32 hours) was 19. For the same compound, the “no of insects at infestation site (A)” value (Anthonomus adults; 48 hours) was 28, the “no of insects capable … (C)” value (Anthonomus adults; 48 hours) was 22 and the “no … not on diet (C)” value (Anthonomus adults; 48 hours) was 4. The “no of insects on diet (B)” value (Anthonomus adults; 48 hours) was 18, the “no of insects at infestation site (A)” value (Anthonomus adults; 52 hours) was 30 and the “no of insects capable … (C)” value (Anthonomus adults; 52 hours) was 20. The “no … not on diet (C)” value (Anthonomus adults; 52 hours) was 6, the “no of insects on diet (B)” value (Anthonomus adults; 52 hours) was 14 and the “no of insects at infestation site (A)” value (Anthonomus adults; 72 hours) was 30. The “no of insects capable … (C)” value (Anthonomus adults; 72 hours) was 20, the “no … not on diet (C)” value (Anthonomus adults; 72 hours) was 6 and the “no of insects on diet (B)” value (Anthonomus adults; 72 hours) was 14. For the same compound, the “no of insects at infestation site (A)” value (Anthonomus adults; 78 hours) was 24, the “no of insects capable … (C)” value (Anthonomus adults; 78 hours) was 26 and the “no … not on diet (C)” value (Anthonomus adults; 78 hours) was 4. The “no of insects on diet (B)” value (Anthonomus adults; 78 hours) was 22, the “no of insects at infestation site (A)” value (Anthonomus adults; 144 hours) was 15 and the “no of insects capable … (C)” value (Anthonomus adults; 144 hours) was 35. The “no … not on diet (C)” value (Anthonomus adults; 144 hours) was 4, the “no of insects on diet (B)” value (Anthonomus adults; 144 hours) was 31 and the “no of insects at infestation site (A)” value (Anthonomus adults; 150 hours) was 15. The “no of insects capable … (C)” value (Anthonomus adults; 150 hours) was 35, the “no … not on diet (C)” value (Anthonomus adults; 150 hours) was 2 and the “no of insects on diet (B)” value (Anthonomus adults; 150 hours) was 33. For the same compound, the “BP80 (break point for 80% mortality)” value (Tetranychus urticae) was >200 ppm, the “BP80 (break point for 80% mortality)” value (Plutella xylostella) was >200 ppm and the “% reduction of damaged squares” value (Anthonomus grandis [1]; 100 g ai/ha, 2 days after 4th application) was 77%. The “% reduction of damaged squares” value (Anthonomus grandis [1]; 100 g ai/ha, 7 days after 4th application) was 37%, the “% reduction of damaged squares” value (Anthonomus grandis [1]; 200 g ai/ha, 2 days after 4th application) was 85% and the “% reduction of damaged squares” value (Anthonomus grandis [1]; 200 g ai/ha, 7 days after 4th application) was 48%.

`N#CCNC(=O)c1cnccc1C(F)(F)F` [Flonicamid, N-(cyanomethyl)-4-(trifluoromethyl)-3-pyridinecarboxamide] was tested, and the “% reduction of damaged squares” value (Anthonomus grandis [2]; 2 days after 2nd application) was 67%, the “% reduction of damaged squares” value (Anthonomus grandis [2]; 5 days after 3rd application) was 52% and the “BP80 (break point for 80% mortality)” value (Heliothis virescens) was >200 ppm. The “immobility effect disappeared with time (rank order)” value (Anthonomus adults) was “PYQU>FLON”, the “no of insects at infestation site (A)” value (Anthonomus adults; 3 hours) was 37 and the “no of insects capable … (C)” value (Anthonomus adults; 3 hours) was 13. For the same compound, the “no … not on diet (C)” value (Anthonomus adults; 3 hours) was 11, the “no of insects on diet (B)” value (Anthonomus adults; 3 hours) was 2 and the “no of insects at infestation site (A)” value (Anthonomus adults; 6 hours) was 44. For the same compound, the “no of insects capable … (C)” value (Anthonomus adults; 6 hours) was 6, the “no … not on diet (C)” value (Anthonomus adults; 6 hours) was 3 and the “no of insects on diet (B)” value (Anthonomus adults; 6 hours) was 3. The “no of insects at infestation site (A)” value (Anthonomus adults; 24 hours) was 37, the “no of insects capable … (C)” value (Anthonomus adults; 24 hours) was 13 and the “no … not on diet (C)” value (Anthonomus adults; 24 hours) was 6. The “no of insects on diet (B)” value (Anthonomus adults; 24 hours) was 7, the “no of insects at infestation site (A)” value (Anthonomus adults; 32 hours) was 21 and the “no of insects capable … (C)” value (Anthonomus adults; 32 hours) was 29. The “no … not on diet (C)” value (Anthonomus adults; 32 hours) was 3, the “no of insects on diet (B)” value (Anthonomus adults; 32 hours) was 26 and the “no of insects at infestation site (A)” value (Anthonomus adults; 48 hours) was 14. The “no of insects capable … (C)” value (Anthonomus adults; 48 hours) was 36, the “no … not on diet (C)” value (Anthonomus adults; 48 hours) was 6 and the “no of insects on diet (B)” value (Anthonomus adults; 48 hours) was 30. The “no of insects at infestation site (A)” value (Anthonomus adults; 52 hours) was 10, the “no of insects capable … (C)” value (Anthonomus adults; 52 hours) was 40 and the “no … not on diet (C)” value (Anthonomus adults; 52 hours) was 3. The “no of insects on diet (B)” value (Anthonomus adults; 52 hours) was 37, the “no of insects at infestation site (A)” value (Anthonomus adults; 72 hours) was 9 and the “no of insects capable … (C)” value (Anthonomus adults; 72 hours) was 41. For the same compound, the “no … not on diet (C)” value (Anthonomus adults; 72 hours) was 7, the “no of insects on diet (B)” value (Anthonomus adults; 72 hours) was 34 and the “no of insects at infestation site (A)” value (Anthonomus adults; 78 hours) was 5. For the same compound, the “no of insects capable … (C)” value (Anthonomus adults; 78 hours) was 45, the “no … not on diet (C)” value (Anthonomus adults; 78 hours) was 6 and the “no of insects on diet (B)” value (Anthonomus adults; 78 hours) was 39. For the same compound, the “no of insects at infestation site (A)” value (Anthonomus adults; 144 hours) was 15, the “no of insects capable … (C)” value (Anthonomus adults; 144 hours) was 35 and the “no … not on diet (C)” value (Anthonomus adults; 144 hours) was 3. For the same compound, the “no of insects on diet (B)” value (Anthonomus adults; 144 hours) was 32, the “no of insects at infestation site (A)” value (Anthonomus adults; 150 hours) was 5 and the “no of insects capable … (C)” value (Anthonomus adults; 150 hours) was 45. For the same compound, the “no … not on diet (C)” value (Anthonomus adults; 150 hours) was 1, the “no of insects on diet (B)” value (Anthonomus adults; 150 hours) was 44 and the “BP80 (break point for 80% mortality)” value (Cydia pomonella) was >50 ppm. For the same compound, the “% reduction of damaged squares” value (Anthonomus grandis [3]; 2 days after 2nd application) was 50%, the “% reduction of damaged squares” value (Anthonomus grandis [3]; 4 days after 4th application) was 57% and the “BP80 (break point for 80% mortality)” value (Tetranychus urticae) was >200 ppm. The “BP80 (break point for 80% mortality)” value (Plutella xylostella) was >200 ppm, the “% reduction of damaged squares” value (Anthonomus grandis [1]; 75 g ai/ha, 2 days after 4th application) was 65% and the “% reduction of damaged squares” value (Anthonomus grandis [1]; 75 g ai/ha, 7 days after 4th application) was 50%. For the same compound, the “% reduction of damaged squares” value (Anthonomus grandis [1]; 150 g ai/ha, 2 days after 4th application) was 81% and the “% reduction of damaged squares” value (Anthonomus grandis [1]; 150 g ai/ha, 7 days after 4th application) was 52%.
